{
  "source": "patent US20110244506A1",
  "about": "“EGFR DEPENDENT MODULATION OF CHEMOKINE EXPRESSION AND INFLUENCE ON THERAPY AND DIAGNOSIS OF TUMORS AND SIDE EFFECTS THEREOF” (Merck Patent GmbH, priority 2005, published 2011)",
  "key": {"STAT3": {"test_system": "STAT3", "experiment": "Western blotting of STAT3 phosphorylation in keratinocytes", "type": "cell-based", "settings": "with or without TGFa or TNFa, 24 h", "description": "(§1) In these experiments keratinocytes were treated with different concentrations of anti-EGFR inhibitors followed by treatment with or without TGF alpha or TNF alpha for, approximately, 24 h. Effects of anti-EGFR inhibitors were evaluated using Western blotting.\n(§2) After 24 h, cells were lysed and analysed by Western blotting."}, "COX-2": {"test_system": "COX-2", "experiment": "Western blotting of COX-2 protein in keratinocytes", "type": "cell-based", "settings": "with or without TGFa or TNFa, 24 h", "description": "as §1, §2"}, "ERK1/2 (Thr 202/204)": {"test_system": "ERK1/2 (Thr 202/204)", "experiment": "Western blotting of ERK1/2 phosphorylation in keratinocytes", "settings": "with or without TGFa or TNFa, 24 h"}, "IP-10, A431": {"test_system": "IP-10, A431", "experiment": "Secreted IP-10 levels in A431 (Luminex)", "type": "cell-based", "settings": "A431, with or without TGFa or TNFa, 24 h, supernatant", "description": "(§3) Tumor cells were treated with anti-EGFR agents and this was followed by treatment with or without TGF alpha or TNF alpha. Secreted chemokines were evaluated in conditioned medium of tumor cells obtained after 24 h. Evaluation was carried out with the Luminex bead technology.\n(§4) After 24 h, cellular supernatants were collected and levels of IP-10 were quantified using the Luminex technology."}, "IL-8, keratinocytes": {"test_system": "IL-8, keratinocytes", "experiment": "Secreted IL-8 levels in keratinocytes (Luminex)", "type": "cell-based", "settings": "with or without TGFa or TNFa, 24 h, supernatant", "description": "(§5) Evaluations were carried out with the Luminex bead technology. In these experiments keratinocytes were treated with anti-EGFR inihibitors followed by treatment with or without TGF alpha or TNF alpha.\n(§6) After 24 h, cellular supernatants were collected and levels of IL-8 were quantified using the Luminex technology."}, "RANTES, A431": {"test_system": "RANTES, A431", "experiment": "Secreted RANTES levels in A431 (Luminex)", "type": "cell-based", "settings": "A431, with or without TGFa or TNFa, 24 h, supernatant", "description": "as §3\n(§7) After 24 h, cellular supernatants were collected and levels of RANTES were quantified using the Luminex technology."}, "IL-8, A431": {"test_system": "IL-8, A431", "experiment": "Secreted IL-8 levels in A431 (Luminex)", "type": "cell-based", "settings": "for secreted IL-8 levels: A431, with or without TGFa or TNFa, 24 h, supernatant", "description": "as §3, §6\n(§8) Cells were treated with 100 ng/ml Cmab or Mmab and stimulated with 100 ng/ml TGFa; number of experiments=1"}, "RANTES, keratinocytes": {"test_system": "RANTES, keratinocytes", "experiment": "Secreted RANTES levels in keratinocytes (Luminex)", "type": "cell-based", "settings": "with or without TGFa or TNFa, 24 h, supernatant", "description": "as §5, §7"}, "IP-10, keratinocytes": {"test_system": "IP-10, keratinocytes", "experiment": "Secreted IP-10 levels in keratinocytes (Luminex)", "type": "cell-based", "settings": "with or without TGFa or TNFa, 24 h, supernatant", "description": "as §5, §4"}, "IL-8, HT29": {"test_system": "IL-8, HT29", "experiment": "Secreted IL-8 levels in HT29 (Luminex)", "type": "cell-based", "settings": "100 ng/ml antibody, stimulated with 100 ng/ml TGFa, number of experiments=1", "description": "as §6, §8"}, "IL-8, PC-3": {"test_system": "IL-8, PC-3", "experiment": "Secreted IL-8 levels in PC-3 (Luminex)", "type": "cell-based", "settings": "100 ng/ml antibody, stimulated with 100 ng/ml TGFa, number of experiments=1", "description": "as §6, §8"}, "[1]": {"test_system": "EGFR-dependent signaling cascades, tumor cell lines such as A431", "experiment": "EGFR-dependent signaling cascades in tumor cell lines", "type": "cell-based", "settings": "various tumor cell lines such as A431"}, "[2]": {"test_system": "IL-8, tumor cell lines (DiFi, HT29, A431, MCF-7, PC-3 and U87 MG)", "experiment": "Secreted IL-8 levels in different tumor cell lines (Luminex)", "type": "cell-based", "settings": "stimulated with TGFa, 24 h", "description": "as §6"}, "EGFR (Tyr 1068)": {"molecular_target": "EGFR (Tyr 1068) (Homo sapiens, UniProt P00533)", "experiment": "Western blotting of EGFR phosphorylation in keratinocytes", "settings": "with or without TGFa or TNFa, 24 h"}, "IL-8, DiFi": {"test_system": "IL-8, DiFi", "experiment": "Secreted IL-8 levels in DiFi (Luminex)", "type": "cell-based", "settings": "100 ng/ml antibody, stimulated with 100 ng/ml TGFa, number of experiments=1", "description": "as §6, §8"}, "IL-8, MCF-7": {"test_system": "IL-8, MCF-7", "experiment": "Secreted IL-8 levels in MCF-7 (Luminex)", "type": "cell-based", "settings": "100 ng/ml antibody, stimulated with 100 ng/ml TGFa, number of experiments=1", "description": "as §6, §8"}, "IL-8, U87MG": {"test_system": "IL-8, U87MG", "experiment": "Secreted IL-8 levels in U87MG (Luminex)", "type": "cell-based", "settings": "100 ng/ml antibody, stimulated with 100 ng/ml TGFa, number of experiments=1", "description": "as §6, §8"}},
  "data": [
    {"compound": "COc1cc2ncnc(Nc3ccc(F)c(Cl)c3)c2cc1OCCCN1CCOCC1", "note": "[Iressa, gefitinib, reference compound]", "values": [
      {"measurement": "phosphorylation of STAT3", "setting": "STAT3", "result": "prevented phosphorylation of STAT3"},
      {"measurement": "expression of COX-2", "setting": "COX-2", "result": "induced expression of COX-2"},
      {"measurement": "phosphorylation of ERK1/2 (Thr 202/204)", "setting": "ERK1/2 (Thr 202/204)", "result": "prevented phosphorylation"},
      {"measurement": "secreted IP-10 levels", "setting": "IP-10, A431", "result": "up-regulated IP-10 in a dose-dependent manner"},
      {"measurement": "secreted IL-8 levels", "setting": "IL-8, keratinocytes", "result": "down-regulated IL-8 in a dose-dependent manner"},
      {"measurement": "secreted RANTES levels", "setting": "RANTES, A431", "result": "up-regulated RANTES in a dose-dependent manner"},
      {"measurement": "secreted IL-8 levels", "setting": "IL-8, A431", "result": "down-regulated IL-8 in a dose-dependent manner"},
      {"measurement": "secreted RANTES levels", "setting": "RANTES, keratinocytes", "result": "up-regulated RANTES in a dose-dependent manner"},
      {"measurement": "secreted IP-10 levels", "setting": "IP-10, keratinocytes", "result": "up-regulated IP-10 in a dose-dependent manner"}
    ]},
    {"compound": "Matuzumab: humanized monoclonal antibody 425 directed to the EGF receptor", "values": [
      {"measurement": "phosphorylation of STAT3", "setting": "STAT3", "result": "prevented phosphorylation of STAT3"},
      {"measurement": "expression of COX-2", "setting": "COX-2", "result": "induced expression of COX-2"},
      {"measurement": "IL-8 levels", "setting": "IL-8, HT29", "result": 30, "unit": "% control"},
      {"measurement": "IL-8 levels", "setting": "IL-8, PC-3", "result": 76, "unit": "% control"},
      {"measurement": "EGFR-dependent signaling cascades", "setting": "[1]", "result": "interferes with EGFR-dependent signaling cascades"},
      {"measurement": "secreted IL-8 levels", "setting": "[2]", "result": "down-regulated IL-8 in all tumor cell lines investigated in a dose-dependent manner"},
      {"measurement": "phosphorylation of ERK1/2 (Thr 202/204)", "setting": "ERK1/2 (Thr 202/204)", "result": "prevented phosphorylation"},
      {"measurement": "secreted IP-10 levels", "setting": "IP-10, A431", "result": "up-regulated IP-10 in a dose-dependent manner"},
      {"measurement": "secreted IL-8 levels", "setting": "IL-8, keratinocytes", "result": "down-regulated IL-8 in a dose-dependent manner"},
      {"measurement": "phosphorylation of EGFR (Tyr 1068)", "setting": "EGFR (Tyr 1068)", "result": "prevented phosphorylation"},
      {"measurement": "IL-8 levels", "setting": "IL-8, DiFi", "result": 28, "unit": "% control"},
      {"measurement": "secreted RANTES levels", "setting": "RANTES, A431", "result": "up-regulated RANTES in a dose-dependent manner"},
      {"measurement": "secreted IL-8 levels", "setting": "IL-8, A431", "result": "down-regulated IL-8 in a dose-dependent manner"},
      {"measurement": "IL-8 levels", "setting": "IL-8, A431; A431, 100 ng/ml antibody, stimulated with 100 ng/ml TGFa, number of experiments=1", "result": 15, "unit": "% control"},
      {"measurement": "secreted RANTES levels", "setting": "RANTES, keratinocytes", "result": "up-regulated RANTES in a dose-dependent manner"},
      {"measurement": "IL-8 levels", "setting": "IL-8, MCF-7", "result": 49, "unit": "% control"},
      {"measurement": "IL-8 levels", "setting": "IL-8, U87MG", "result": 58, "unit": "% control"},
      {"measurement": "secreted IP-10 levels", "setting": "IP-10, keratinocytes", "result": "up-regulated IP-10 in a dose-dependent manner"}
    ]}
  ]
}
